Assay results published in patent publication US6288036A, “Bradykinin type peptides” (priority 1993, dated 2001).
*1 amine or outer side, *2 acyl side, *3 side chain or, on linkers, in order; H or OH if unused. Where a SMILES comes first, the peptide text is derived from it. Where no end group is shown, it is not given here. [ ]: non-standard residue; d: D form. The star is where a group is joined. X3 = O=C([C@@H]1C[C@H](Oc2ccc([N+](=O)[O-])cc2)CN1[*:1])[*:2]; X2 = O=C([C@@H]1C[C@H](Oc2ccccc2[N+](=O)[O-])CN1[*:1])[*:2]; Pro(cis-4-OPh) = O=C(O)[C@@H]1C[C@H](Oc2ccccc2)CN1; X1 = O=C([C@@H]1C[C@H](Sc2ccccc2)CN1[*:1])[*:2]; cisHyp = O=C(O)[C@@H]1C[C@H](O)CN1; Hyp = O=C(O)[C@@H]1C[C@@H](O)CN1; Cyclohexylmethyl = C1CCC(C*)CC1; dTic = O=C(O)[C@H]1Cc2ccccc2CN1

Columns and labels:
bradykinin receptor = molecular target: T1, bradykinin receptor (Cavia porcellus, UniProt O70526); assay: 3H-Bradykinin binding assay, guinea pig terminal ileum homogenate; details: competition with 3H-bradykinin (~0.3 nM), guinea pig terminal ileum membranes, 90 min ambient temperature
T1 construct: from tissue; host or cells: guinea pig terminal ileum, washed membrane homogenate
T1 sequence (O70526 1-372): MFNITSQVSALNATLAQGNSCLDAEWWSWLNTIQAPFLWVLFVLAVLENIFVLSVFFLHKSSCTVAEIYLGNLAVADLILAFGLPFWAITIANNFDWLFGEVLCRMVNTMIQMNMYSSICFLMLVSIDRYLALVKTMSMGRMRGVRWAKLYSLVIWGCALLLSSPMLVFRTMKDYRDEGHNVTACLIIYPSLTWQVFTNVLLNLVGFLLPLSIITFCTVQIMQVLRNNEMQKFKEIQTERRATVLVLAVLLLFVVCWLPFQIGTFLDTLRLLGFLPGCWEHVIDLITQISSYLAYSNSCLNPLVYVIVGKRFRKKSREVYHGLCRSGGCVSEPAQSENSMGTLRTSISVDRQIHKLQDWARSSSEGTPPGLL
Excerpt: Binding of ^3 H-Bradykinin was preformed using the method of D. C. Manning, […], and […]. Pharmacol. Exp. Ther., (1986),237 504. The tissues used in the binding assay were terminal ileum from male Hartley guinea pigs (150-350 g). After dissection, tissues were placed in 20 vol of ice-cold buffer A (25 Mm TES containing 0.2 g/L of 1,10-phenanthroline adjusted to Ph 6.8 with ammonium hydroxide) and homogenized using a Ploytron Tissumizer at setting 6 for 15 sec. The homogenate was centrifuged at 50,000×g for 10 min, the supernatant discarded, and the pellet resuspended in ice-cold buffer A by homogenization with the Polytron. Each tissue was homogenized and centrifuged three times. The final pellet was resuspended in buffer A containing bovine serum albumin (1 g/L) and Bacitracin (0.14 g/L) to a final volume of 170 Ml/g of the original tissue weight. The binding assay consisted of 1 Ml in 12×75 mm polypropylene tubes: 50 uL ^3 H-bradykinin (20,000 dpm, ~0.3 Nm in the final assay volume), […] displacing drug in buffer A, and 750 Ul tissue homogenate. […] Tubes were incubated for 90 min at ambient temperature. The assays were terminated by filtration over Whatman GF/B glass fiber filters that had been pretreated for 2 hours with polyethyleneimine (2 g/L) using a Brandel Tissue Harvester, followed by washing with 4×1 Ml aliquots of ice-cold 50 Mm Tris, Ph 7.4. Filters were dissolved in Ready-Safe Fluor (Beckman) for at least 90 min before quantitation by liquid scintillation spectrometry. Kd values were determined using saturation binding and analysis by […]. Pharmacol. Methods, (1985), 213)], followed by LIGAND [[…], Anal. Biochem., (1980), 220]. Ki values were determined using competitive analysis followed by EBDA and LIGAND. The following test results were obtained.

[1] = molecular target: T2, bradykinin receptors on intestinal (ileal longitudinal) smooth muscle (Cavia porcellus, UniProt O70526); assay: Bradykinin antagonist activity on guinea pig ileal longitudinal smooth muscle (contraction, Schild analysis); assay type: cell-based; details: antagonism of bradykinin-induced contraction, guinea pig ileum longitudinal muscle, read-out: pA2 (converted)
T2 construct: The longitudinal muscle was separated from the underlying circular muscle; from tissue; host or cells: guinea pig ileal longitudinal smooth muscle strips
T2 sequence (O70526 1-372): T1 sequence (O70526 1-372)
Method: Determination of Bradykinin Antagonist Activity
Guinea pig intestine was removed and placed in a Petri dish containing Tyrodes solution and cut into 3-4 cm segments. The longitudinal muscle was separated from the underlying circular muscle using a cotton applicator (Paton and Zar, J. Physiol. (1968), 194:13). Muscle strips were connected to isometric force-displacement transducers (Grass or Gould) coupled to a physiograph and placed in tissue baths containing Tyrode's solution at 37° C. Each preparation was suspended under a resting tension of 2 g.
After equilibration of the tissues, appropriate volumes of bradykinin solutions were cumulatively added to the 10 Ml tissue baths to increase the concentration of bradykinin in the bath step-by-step without washing out after each single dose. Higher concentrations were added only after the preceding contraction had reached a steady value. […] Antagonism of bradykinin responses in the presence of antagonist were determined by repeating the cumulative addition procedure for bradykinin after the tissue has been exposed to the antagonist for 5 minutes. Three or four differentconcentrations of antagonist are studied sequentially in the same preparations. Responses were expressed as a percentage of the maximum contraction elicited by bradykinin in the absence of antagonist. pA2 values were calculated by Schild analysis.

[2] = cited from earlier work
[3] = anesthetized rat, intra-aortic vs intravenous administration; cited from earlier work

Molecule	Ki (bradykinin receptor) [nM]	Kb [1] [nM]	half life in the systemic circulation [2]	destruction on a single passage through the pulmonary circulation [3]
CCCO[C@@H]1C[C@@H](C(=O)N[C@@H](CCCNC(=N)N)C(=O)O)N(C(=O)[C@H]2Cc3ccccc3CN2C(=O)[C@H](CO)NC(=O)[C@H](Cc2cccs2)NC(=O)CNC(=O)[C@@H]2C[C@@H](O)CN2C(=O)[C@@H]2CCCN2C(=O)[C@H](CCCNC(=N)N)NC(=O)[C@H](N)CCCNC(=N)N)C1 [D-Arg-Arg-Pro-4Hyp-Gly-Thi-Ser-D-Tic-(Hydroxyproline trans propyl ether)-Arg]	4.85	138	–	–
CO[C@H]1C[C@@H](C(=O)N[C@@H](CCCNC(=N)N)C(=O)O)N(C(=O)[C@H]2Cc3ccccc3CN2C(=O)[C@H](CO)NC(=O)[C@H](Cc2cccs2)NC(=O)CNC(=O)[C@@H]2C[C@@H](O)CN2C(=O)[C@@H]2CCCN2C(=O)[C@H](CCCNC(=N)N)NC(=O)[C@H](N)CCCNC(=N)N)C1 [D-Arg-Arg-Pro-4Hyp-Gly-Thi-Ser-D-Tic-(hydroxyproline cis methyl ether)-Arg]	1.83	141	–	–
N=C(N)NCCC[C@@H](N)C(=O)N[C@@H](CCCNC(=N)N)C(=O)N1CCC[C@H]1C(=O)N1C[C@H](O)C[C@H]1C(=O)NCC(=O)N[C@@H](Cc1ccccc1)C(=O)N[C@@H](CO)C(=O)N1Cc2ccccc2C[C@@H]1C(=O)N1C[C@@H](Oc2ccccc2[N+](=O)[O-])C[C@H]1C(=O)N[C@@H](CCCNC(=N)N)C(=O)O [D-Arg-Arg-Pro-4Hyp-Gly-Phe-Ser-D-Tic-(hydroxyproline cis 2-nitrophenyl ether)-Arg] (H-[dR]RP[Hyp]GFS[dTic][X2]R-OH)	3.76	141	–	–
N=C(N)NCCC[C@@H](N)C(=O)N[C@@H](CCCNC(=N)N)C(=O)N1CCC[C@H]1C(=O)N1C[C@H](O)C[C@H]1C(=O)NCC(=O)N[C@@H](Cc1ccccc1)C(=O)N[C@@H](CO)C(=O)N1Cc2ccccc2C[C@@H]1C(=O)N1C[C@@H](OCC2CCCCC2)C[C@H]1C(=O)N[C@@H](CCCNC(=N)N)C(=O)O [D-Arg-Arg-Pro-4Hyp-Gly-Phe-Ser-D-Tic-(hydroxyproline cis cyclohexylmethyl ether)-Arg] (H-[dR]RP[Hyp]GFS[dTic][cisHyp](Cyclohexylmethyl)R-OH)	13.2	–	–	–
CCO[C@@H]1C[C@@H](C(=O)N[C@@H](CCCNC(=N)N)C(=O)O)N(C(=O)[C@H]2Cc3ccccc3CN2C(=O)[C@H](CO)NC(=O)[C@H](Cc2ccccc2)NC(=O)CNC(=O)[C@@H]2C[C@@H](O)CN2C(=O)[C@@H]2CCCN2C(=O)[C@H](CCCNC(=N)N)NC(=O)[C@H](N)CCCNC(=N)N)C1 [D-Arg-Arg-Pro-4Hyp-Gly-Phe-Ser-D-Tic-(Hydroxyproline trans ethyl ether)-Arg] (H-[dR]RP[Hyp]GFS[dTic][Hyp](Et)R-OH)	5.44	51.3	–	–
CCCO[C@H]1C[C@@H](C(=O)N[C@@H](CCCNC(=N)N)C(=O)O)N(C(=O)[C@H]2Cc3ccccc3CN2C(=O)[C@H](CO)NC(=O)[C@H](Cc2cccs2)NC(=O)CNC(=O)[C@@H]2C[C@@H](O)CN2C(=O)[C@@H]2CCCN2C(=O)[C@H](CCCNC(=N)N)NC(=O)[C@H](N)CCCNC(=N)N)C1 [D-Arg-Arg-Pro-4Hyp-Gly-Thi-Ser-D-Tic-(Hydroxyproline cis propyl ether)-Arg]	1.58	224	–	–
RPPGFSPFR [bradykinin, Arg-Pro-Pro-Gly-Phe-Ser-Pro-Phe-Arg]	–	–	less than 30 seconds	98-99%
N=C(N)NCCC[C@@H](N)C(=O)N[C@@H](CCCNC(=N)N)C(=O)N1CCC[C@H]1C(=O)N1C[C@H](O)C[C@H]1C(=O)NCC(=O)N[C@@H](Cc1ccccc1)C(=O)N[C@@H](CO)C(=O)N1Cc2ccccc2C[C@@H]1C(=O)N1C[C@@H](Oc2ccc([N+](=O)[O-])cc2)C[C@H]1C(=O)N[C@@H](CCCNC(=N)N)C(=O)O [D-Arg-Arg-Pro-4Hyp-Gly-Phe-Ser-D-Tic-(hydroxyproline cis 4-nitrophenyl ether)-Arg] (H-[dR]RP[Hyp]GFS[dTic][X3]R-OH)	3.98	138	–	–
N=C(N)NCCC[C@@H](N)C(=O)N[C@@H](CCCNC(=N)N)C(=O)N1CCC[C@H]1C(=O)N1C[C@H](O)C[C@H]1C(=O)NCC(=O)N[C@@H](Cc1ccccc1)C(=O)N[C@@H](CO)C(=O)N1Cc2ccccc2C[C@@H]1C(=O)N1C[C@@H](Sc2ccccc2)C[C@H]1C(=O)N[C@@H](CCCNC(=N)N)C(=O)O [D-Arg-Arg-Pro-4Hyp-Gly-Phe-Ser-D-Tic-(hydroxyproline cis phenyl thioether)-Arg] (H-[dR]RP[Hyp]GFS[dTic][X1]R-OH)	0.06	11.2	–	–
CCO[C@H]1C[C@@H](C(=O)N[C@@H](CCCNC(=N)N)C(=O)O)N(C(=O)[C@H]2Cc3ccccc3CN2C(=O)[C@H](CO)NC(=O)[C@H](Cc2ccccc2)NC(=O)CNC(=O)[C@@H]2C[C@@H](O)CN2C(=O)[C@@H]2CCCN2C(=O)[C@H](CCCNC(=N)N)NC(=O)[C@H](N)CCCNC(=N)N)C1 [D-Arg-Arg-Pro-4Hyp-Gly-Phe-Ser-D-Tic-(hydroxyproline cis ethyl ether)-Arg] (H-[dR]RP[Hyp]GFS[dTic][cisHyp](Et)R-OH)	4.15	110	–	–
N=C(N)NCCC[C@@H](N)C(=O)N[C@@H](CCCNC(=N)N)C(=O)N1CCC[C@H]1C(=O)N1C[C@H](O)C[C@H]1C(=O)NCC(=O)N[C@@H](Cc1cccs1)C(=O)N[C@@H](CO)C(=O)N1Cc2ccccc2C[C@@H]1C(=O)N1C[C@H](OC(=O)Nc2ccccc2)C[C@H]1C(=O)N[C@@H](CCCNC(=N)N)C(=O)O [D-Arg-Arg-Pro-4Hyp-Gly-Thi-Ser-D-Tic-(Hydroxyproline trans phenyl carbamoyl)-Arg]	11.5	–	–	–
N=C(N)NCCC[C@@H](N)C(=O)N[C@@H](CCCNC(=N)N)C(=O)N1CCC[C@H]1C(=O)N1C[C@H](O)C[C@H]1C(=O)NCC(=O)N[C@@H](Cc1ccccc1)C(=O)N[C@@H](CO)C(=O)N1Cc2ccccc2C[C@@H]1C(=O)N1C[C@@H](Oc2ccccc2)C[C@H]1C(=O)N[C@@H](CCCNC(=N)N)C(=O)O [D-Arg-Arg-Pro-4Hyp-Gly-Phe-Ser-D-Tic-(hydroxyproline cis phenyl ether)-Arg] (H-[dR]RP[Hyp]GFS[dTic][Pro(cis-4-OPh)]R-OH)	2.51	–	–	–
